Among the test systems are SW-620 colon; HOP-62 NSCLC; SK-MEL-2 melanoma; MALME-3M melanoma; UACC-62 melanoma; SK-OV-3 ovarian; LOX IMVI melanoma; OVCAR-3 ovarian; NCI-H522 lung; NCI-H226 lung; TK-10 renal.
Holding throughout (experiment): DTP human tumour cell line panel, 48 h

Molecules are shown by their SMILES. Values joined by “and” are separate entries in the source; they are usually repeats but may differ in a detail not shown here. Equal values may be shown once.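 Growth conditions: 96-well plates. Treatment: test compound, 48 hours, 5 concentrations. Analysis: linear interpolation between bracketing concentrations; unreached endpoints set to highest concentration. Here, GI50 denotes the concentration required for 50% inhibition of growth. TGI: concentration producing complete growth inhibition.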 Peptide text beside a SMILES is read from it. * marks the point of attachment. X34 = O=C(c1ccc(-c2ccc(Cl)cc2Cl)o1)* Some results are limits rather than exact numbers.

One may read the TGI as the concentration at which net growth stops. In the case of `COc1cc(NC(C)=O)ccc1C(=O)N/N=C/c1ccco1`, the concentration for total growth inhibition (TGI) in the experiment with SW-620 colon, in the experiment on HOP-62 NSCLC, in the experiment with SK-MEL-2 melanoma, in the experiment with MALME-3M melanoma, with UACC-62 melanoma and in the experiment with SK-OV-3 ovarian was > 100 µM each time. Besides, the TGI in the experiment with LOX IMVI melanoma, in the experiment on OVCAR-3 ovarian and in the experiment on NCI-H522 lung was > 100 µM each time.

Turning to `CCOc1ccccc1Nc1ccc(N)cc1S(=O)(=O)O`, the concentration for total growth inhibition (TGI) in the experiment on NCI-H226 lung, in the experiment with SW-620 colon, with HOP-62 NSCLC, with SK-MEL-2 melanoma, in the experiment on MALME-3M melanoma and in the experiment with UACC-62 melanoma was > 100 µM throughout. Further, the total growth inhibition concentration (TGI) in the experiment with TK-10 renal, in the experiment on LOX IMVI melanoma, with OVCAR-3 ovarian and in the experiment with NCI-H522 lung was > 100 µM each time.

Take `COc1ccc(C(=O)CCN(C)C)c2ccccc12`: the concentration for total growth inhibition (TGI) is > 100 µM with NCI-H226 lung; 49.3 µM with SW-620 colon; > 78.3 µM in the experiment with HOP-62 NSCLC; 39.2 µM with SK-MEL-2 melanoma; 34.4 µM in the experiment on MALME-3M melanoma; > 58.1 µM with UACC-62 melanoma. Also, the total growth inhibition concentration (TGI) with TK-10 renal is > 54.4 µM; in the experiment with SK-OV-3 ovarian, > 100 µM; in the experiment on LOX IMVI melanoma, 42.8 µM; with OVCAR-3 ovarian, 36.9 µM; in the experiment on NCI-H522 lung, 21.9 µM.

For `CC[C@@]1(O)C[C@H](OC2CC(N(C)C)C(OC3CC(O)C(OC4CCC(=O)C(C)O4)C(C)O3)C(C)O2)c2c(cc3c(c2O)C(=O)c2c(O)cccc2C3=O)C1C(=O)OC` (stereo partly specified), the concentration for total growth inhibition (TGI) in the experiment with HOP-62 NSCLC is 1.58 µM; with SK-MEL-2 melanoma it was 0.0581 µM and 0.425 µM; with MALME-3M melanoma, 0.0948 µM and 0.569 µM; with UACC-62 melanoma, 0.26 µM and 0.527 µM; with SK-OV-3 ovarian it was 6 µM and 12.7 µM; with OVCAR-3 ovarian, 0.23 µM and 1.96 µM.

On to `CC1=C(SCCO)C(=O)c2ccccc2C1=O`, for which the TGI was found to be 29.1 µM in the experiment on NCI-H226 lung; 33.1 µM in the experiment with SW-620 colon; 29.4 µM in the experiment with HOP-62 NSCLC; 24.5 µM in the experiment on SK-MEL-2 melanoma; 27.3 µM in the experiment on MALME-3M melanoma; 31.7 µM in the experiment on UACC-62 melanoma. For the same compound, the total growth inhibition concentration (TGI) came out at 30.4 µM in the experiment on TK-10 renal; 29.6 µM in the experiment with SK-OV-3 ovarian; 24.6 µM in the experiment on LOX IMVI melanoma; 15.3 µM in the experiment on OVCAR-3 ovarian; 14.6 µM in the experiment on NCI-H522 lung.

Regarding `CC(=O)OC12CC[N+]3(C)CCCCC3C1=Nc1ccccc12` (stereo unspecified), the TGI with NCI-H226 lung, in the experiment with SW-620 colon, in the experiment with HOP-62 NSCLC, in the experiment on SK-MEL-2 melanoma, in the experiment with MALME-3M melanoma and in the experiment on UACC-62 melanoma was > 100 µM in each case. Further, the TGI with TK-10 renal, in the experiment on SK-OV-3 ovarian, in the experiment with LOX IMVI melanoma, in the experiment with OVCAR-3 ovarian and in the experiment with NCI-H522 lung was > 100 µM each time.

In the case of `[C-]#[N+]C(=C\c1ccc(O)cc1)/C(=C/c1ccc(O)cc1)[N+]#[C-]`, the TGI with NCI-H226 lung was > 22.7 µM; in the experiment with SW-620 colon, > 34.3 µM; in the experiment with HOP-62 NSCLC, > 100 µM; in the experiment with MALME-3M melanoma, 4.39 µM; in the experiment with UACC-62 melanoma it was 3.7 µM; with TK-10 renal it was > 100 µM. Also, the TGI in the experiment with SK-OV-3 ovarian is > 100 µM; with LOX IMVI melanoma it was 5.16 µM; in the experiment with OVCAR-3 ovarian, > 100 µM; with NCI-H522 lung, > 33.1 µM.

Regarding `O=C1CCCCN1`, the total growth inhibition concentration (TGI) with NCI-H226 lung, in the experiment on SW-620 colon, with HOP-62 NSCLC, in the experiment with SK-MEL-2 melanoma, in the experiment with MALME-3M melanoma and with UACC-62 melanoma was > 1120 µM throughout. For the same compound, the TGI in the experiment on SK-OV-3 ovarian, in the experiment with LOX IMVI melanoma, in the experiment on OVCAR-3 ovarian and with NCI-H522 lung was > 1120 µM throughout.

As to `COc1nc2ccc(CNc3ccc(C(=O)NC(CCC(=O)O)C(=O)O)cc3)cc2nc1OC` (stereo unspecified), the total growth inhibition concentration (TGI) with NCI-H226 lung, in the experiment with SW-620 colon, with HOP-62 NSCLC, in the experiment with SK-MEL-2 melanoma, in the experiment with MALME-3M melanoma and in the experiment on UACC-62 melanoma was > 100 µM in each case. The TGI in the experiment on TK-10 renal, in the experiment on SK-OV-3 ovarian, in the experiment with LOX IMVI melanoma, with OVCAR-3 ovarian and in the experiment with NCI-H522 lung was > 100 µM each time.

Turning to `CCCCC(=O)c1c(O)ccc2c(C)cc(=O)oc12`, the total growth inhibition concentration (TGI) with NCI-H226 lung, with SW-620 colon, with HOP-62 NSCLC, with SK-MEL-2 melanoma, in the experiment on MALME-3M melanoma and in the experiment with UACC-62 melanoma was > 100 µM each time. In addition, the TGI in the experiment on TK-10 renal, with LOX IMVI melanoma, in the experiment with OVCAR-3 ovarian and with NCI-H522 lung was > 100 µM throughout.

With `COC(=O)C(CC(C)C)NC(=O)C(Cc1ccccc1)NC(=O)C1CCCN1C(=O)C(CO)NC(=O)c1ccc(-c2ccc(Cl)cc2Cl)o1` (stereo unspecified) (X34-SPFL-OMe; configuration not given here), the total growth inhibition concentration (TGI) was 44.9 µM in the experiment with NCI-H226 lung; > 100 µM in the experiment with SW-620 colon; 33.7 µM in the experiment with SK-MEL-2 melanoma; > 100 µM in the experiment with MALME-3M melanoma; > 100 µM in the experiment with UACC-62 melanoma; 67.5 µM with TK-10 renal. In addition, the TGI in the experiment with SK-OV-3 ovarian was 25.7 µM; in the experiment with LOX IMVI melanoma, 47.9 µM; with NCI-H522 lung, > 100 µM.

Take `O=S(=O)(O)c1cc(S(=O)(=O)O)c2c(N=Nc3ccc(S(=O)(=O)O)c4ccccc34)c(O)ccc2c1`: the TGI with NCI-H226 lung, in the experiment with SW-620 colon, with HOP-62 NSCLC, in the experiment with SK-MEL-2 melanoma, in the experiment on MALME-3M melanoma and in the experiment on UACC-62 melanoma was > 100 µM in each case. The TGI with TK-10 renal, with SK-OV-3 ovarian, in the experiment with LOX IMVI melanoma, in the experiment on OVCAR-3 ovarian and in the experiment on NCI-H522 lung was > 100 µM each time.

For orientation: GI50 means the concentration giving 50% growth inhibition. Turning to `COc1cc2c3c(n(CCCn4cncn4)c(=O)c2cc1OC)-c1cc2c(cc1C3=O)OCO2`, the concentration for total growth inhibition (TGI) was > 100 µM with NCI-H226 lung; > 100 µM with SW-620 colon; 59 µM in the experiment on HOP-62 NSCLC; > 100 µM with SK-MEL-2 melanoma; > 48.1 µM in the experiment with MALME-3M melanoma; > 88.1 µM in the experiment with TK-10 renal. Moreover, the concentration for total growth inhibition (TGI) is > 49.3 µM in the experiment with LOX IMVI melanoma, > 100 µM with OVCAR-3 ovarian and > 100 µM in the experiment on NCI-H522 lung. In addition, the GI50 was 1.08 µM with SW-620 colon; < 0.0283 µM in the experiment on HOP-62 NSCLC; > 100 µM in the experiment with SK-MEL-2 melanoma; 1.36 µM in the experiment on MALME-3M melanoma; < 0.01 µM with UACC-62 melanoma; 35.2 µM with TK-10 renal. In addition, the figures for the GI50 in the experiment with LOX IMVI melanoma and in the experiment with OVCAR-3 ovarian were 0.0572 µM and 31.9 µM, respectively.

For the origin of these results see PubChem BioAssay (NCI).
